Experimental data as given in US12365674B2, “Inhibitors of histone deacetylase useful for the treatment or prevention of HIV infection” (Merck Sharp & Dohme LLC, priority 2019, dated 2025).

What was measured:
Format in all cases: biochemical
[1] = biological target: T1, human HDAC1 (Homo sapiens, UniProt Q13547); assay: Human HDAC enzyme inhibitor Fluor-de-Lys assay, HDAC1; details: 0.3 nM enzyme, 20 μM substrate BML-KI104, 3 h pre-incubation, 60 min reaction; read-out: HDAC1_IC50
T1 construct: Full length human HDAC1-FLAG was stably expressed in HEK-293F cells; host or cells: HEK-293F cells
T1 sequence (Q13547 whole entry): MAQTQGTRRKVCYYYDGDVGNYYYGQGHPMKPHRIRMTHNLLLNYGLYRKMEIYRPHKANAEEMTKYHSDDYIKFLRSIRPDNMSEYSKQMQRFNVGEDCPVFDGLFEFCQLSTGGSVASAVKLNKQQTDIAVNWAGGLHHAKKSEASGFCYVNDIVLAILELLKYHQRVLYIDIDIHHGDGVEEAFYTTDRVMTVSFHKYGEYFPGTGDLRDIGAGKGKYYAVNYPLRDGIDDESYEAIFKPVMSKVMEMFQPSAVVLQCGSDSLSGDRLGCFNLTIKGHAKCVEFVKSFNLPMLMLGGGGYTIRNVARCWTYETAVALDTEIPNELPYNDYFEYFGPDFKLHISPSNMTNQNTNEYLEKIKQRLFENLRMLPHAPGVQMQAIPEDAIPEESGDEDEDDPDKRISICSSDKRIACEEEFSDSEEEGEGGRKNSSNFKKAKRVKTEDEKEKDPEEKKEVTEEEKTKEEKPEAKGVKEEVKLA
From the text: (§1) Recombinant human HDAC8 (catalog number BML-SE145-0100) and HDAC10 (catalog number BML-SE559-0050) enzymes, HDAC substrates BML-KI104 and BML-KI178, and HDAC developer solutions BML-KI105 and BML-KI176 were purchased from Enzo Life Sciences (Farmingdale, NY). Recombinant human HDAC5 and HDAC11 were purchased from BPS Bioscience (San Diego, CA)(catalog numbers 50045 and 50021). Substrate Boc-Lys(TFA)-AMC was obtained from Bachem (Bupendorf, Switzerland) (catalog number 1-1985). HDAC inhibitor suberoylanilide hydroxamic acid (SAHA) was obtained from Indofine (Hillsborough Township, NJ) and trichostatin A (TSA) was obtained from Sigma-Aldrich (St. Louis, MO). […] HEPES pH 8.0 was obtained from Boston BioProducts (Ashland, MA), Tween-20 from Fisher Scientific (Hampton, NH)(catalog number BP337), TCEP from Calbiochem and 7.5% bovine serum albumin (BSA) from Life Technologies (Carlsbad, CA) (catalog number 15260037). 384-well, black assay plates were obtained from Corning (Corning, NY) (catalog number 3575).
(§2) Recombinant human HDAC1, HDAC2, and HDAC3/SMRT heterodimer were prepared by Merck Research Laboratories. […] The eluted protein was then passed over an anti-HDAC1 immunoaffinity column to remove any complexes containing HDAC1. […]
(§3) The histone deacetylase activities of HDAC1, HDAC2, HDAC3, HDAC6, and HDAC8 were measured in modified Fluor-de-Lys assays in 384-well format. In this assay, HDAC enzymes are initially incubated with an ε-acetyl (or -trifluoroacetyl)-L-lysine-containing substrate with a C-terminal amide having aminomethylcoumarin as the amine component. HDACs cleave the ε-acetyl group, rendering the resulting product susceptible to AMC cleavage by trypsin. The released AMC is then detected by its fluorescence.
(§4) The HDAC 1, 2 assays employed buffer A, which contained 20 mM HEPES, pH 8.0, 1 mM MgCl2, 137 mM NaCl, 2.7 mM KCl, 0.05% BSA. The HDAC3/SMRT assay employed buffer B, consisting of 20 mM HEPES, pH 8.0, 1 mM MgCl2, 50 mM NaCl, 2.7 mM KCl, 0.05% BSA, 0.005% Tween 20, and 10 μM IP4. The HDAC6 assay employed buffer C, consisting of 20 mM HEPES, pH 8.0, 1 mM MgCl2, 137 mM NaCl, 2.7 mM KCl, 0.5 mM TCEP (Calbiochem) and 0.05% BSA. The HDAC8 assay employed buffer D, consisting of 20 mM HEPES, pH 8.0, 1 mM MgCl2, 100 mM NaCl, 20 mM KCl, 0.1% n-octyl-β-D-glucoside (Anatrace, Maumee, OH) and 0.05% BSA. All steps were performed at room temperature (23° C.). The assay was performed by pre-incubating serial dilutions of test compounds with the target HDAC prior to initiation with substrate. Each compound was titrated in a 10-point dose response, using a 1:3 fold dilution scheme, with 0.15 ul of solution added by ECHO555 to the plate, followed by the addition of 20 μl of the appropriate HDAC isoform diluted in appropriate assay buffer. […] Final conditions used for each assay were: 1. HDAC 1, 0.3 nM total enzyme, 20 μM substrate BML-K1104; 2. HDAC 2, 1.5 nM total enzyme, 40 μM substrate BML-K1104; 3. HDAC 3/SMRT, 0.3 nM total enzyme, 20 μM substrate BML-K1104; 4. HDAC 6, 1.3 nM total enzyme, 2.5 μM substrate BML-K1104; 5. HDAC 8, 1.3 nM total enzyme, 200 μM substrate BML-K1178; the final high dose of test compound was 30 μM. […] The reactions were stopped and developed by addition of 30 ul of HDAC developer solution containing a saturating level of HDAC inhibitor as follows: 1.

[2] = biological target: T2, human HDAC2 (Homo sapiens, UniProt Q92769); assay: Human HDAC enzyme inhibitor Fluor-de-Lys assay, HDAC2; details: 1.5 nM enzyme, 40 μM substrate BML-KI104, 3 h pre-incubation, 60 min reaction; read-out: HDAC2_IC50
T2 construct: Full length human HDAC2-FLAG was expressed in baculovirus infected Sf9 cells; host or cells: baculovirus infected Sf9 cells
T2 sequence (Q92769 whole entry): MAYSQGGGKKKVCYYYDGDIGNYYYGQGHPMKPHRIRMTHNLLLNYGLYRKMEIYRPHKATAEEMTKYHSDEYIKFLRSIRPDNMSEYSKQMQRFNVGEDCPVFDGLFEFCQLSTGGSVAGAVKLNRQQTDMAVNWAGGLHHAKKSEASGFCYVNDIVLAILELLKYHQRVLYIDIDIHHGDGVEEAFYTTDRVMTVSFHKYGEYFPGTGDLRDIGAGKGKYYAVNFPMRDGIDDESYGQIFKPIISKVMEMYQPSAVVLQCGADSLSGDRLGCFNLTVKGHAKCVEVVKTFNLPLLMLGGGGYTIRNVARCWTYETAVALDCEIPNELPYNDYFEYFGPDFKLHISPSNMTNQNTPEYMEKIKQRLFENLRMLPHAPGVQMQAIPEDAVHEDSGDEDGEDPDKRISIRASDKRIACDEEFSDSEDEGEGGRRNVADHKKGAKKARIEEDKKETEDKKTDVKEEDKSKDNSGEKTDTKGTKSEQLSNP
From the text: as §1, §2, §3, §4

[3] = biological target: T3, human HDAC3/SMRT heterodimer (Homo sapiens, UniProt O15379); assay: Human HDAC enzyme inhibitor Fluor-de-Lys assay, HDAC3/SMRT; details: HDAC3/SMRT 0.3 nM enzyme, 20 μM substrate BML-KI104, 10 μM IP4, 3 h pre-incubation, 60 min reaction; read-out: HDAC3_IC50
T3 construct: Full length human HDAC3-FLAG was expressed in HEK-293F cells along with SMRT; host or cells: HEK-293F cells
T3 sequence (O15379 whole entry): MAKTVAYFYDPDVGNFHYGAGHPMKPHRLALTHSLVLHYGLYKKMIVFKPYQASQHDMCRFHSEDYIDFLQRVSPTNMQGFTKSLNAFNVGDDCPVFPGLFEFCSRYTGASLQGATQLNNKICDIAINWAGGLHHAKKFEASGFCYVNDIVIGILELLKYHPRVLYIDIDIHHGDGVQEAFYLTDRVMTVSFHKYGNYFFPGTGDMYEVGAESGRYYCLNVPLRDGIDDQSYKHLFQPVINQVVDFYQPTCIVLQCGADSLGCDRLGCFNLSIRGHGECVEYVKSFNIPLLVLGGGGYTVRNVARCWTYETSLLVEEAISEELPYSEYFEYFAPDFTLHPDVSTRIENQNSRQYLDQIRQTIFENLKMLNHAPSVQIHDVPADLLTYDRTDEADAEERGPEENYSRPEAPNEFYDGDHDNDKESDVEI
T3 sequence (Q9Y618 1-899 partner limits assumed): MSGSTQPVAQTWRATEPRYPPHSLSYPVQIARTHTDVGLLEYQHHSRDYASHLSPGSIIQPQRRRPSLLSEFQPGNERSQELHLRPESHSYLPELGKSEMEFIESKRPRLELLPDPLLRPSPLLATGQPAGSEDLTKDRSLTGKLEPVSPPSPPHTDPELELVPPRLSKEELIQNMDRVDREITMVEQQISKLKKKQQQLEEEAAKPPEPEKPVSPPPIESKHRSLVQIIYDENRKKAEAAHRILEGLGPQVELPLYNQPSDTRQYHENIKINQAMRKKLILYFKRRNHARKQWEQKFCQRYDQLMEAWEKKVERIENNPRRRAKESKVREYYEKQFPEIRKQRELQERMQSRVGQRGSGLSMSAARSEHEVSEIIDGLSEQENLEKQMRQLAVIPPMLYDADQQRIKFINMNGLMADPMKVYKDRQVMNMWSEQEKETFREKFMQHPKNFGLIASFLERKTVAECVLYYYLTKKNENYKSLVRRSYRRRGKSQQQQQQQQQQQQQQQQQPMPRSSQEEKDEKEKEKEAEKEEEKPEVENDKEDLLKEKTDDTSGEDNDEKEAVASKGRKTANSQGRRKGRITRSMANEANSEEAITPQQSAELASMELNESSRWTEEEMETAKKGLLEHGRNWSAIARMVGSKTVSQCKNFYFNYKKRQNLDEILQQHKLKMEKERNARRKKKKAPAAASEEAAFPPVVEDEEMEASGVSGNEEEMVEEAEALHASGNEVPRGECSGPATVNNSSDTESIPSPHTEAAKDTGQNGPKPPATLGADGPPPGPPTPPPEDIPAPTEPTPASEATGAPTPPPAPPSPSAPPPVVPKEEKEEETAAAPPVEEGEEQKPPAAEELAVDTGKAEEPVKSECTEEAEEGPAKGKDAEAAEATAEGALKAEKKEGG
From the text: as §1, §2, §3, §4

Work on COc1nc2ccccc2cc1-c1cnc([C@@H](N)COCCCC(=O)c2ncco2)[nH]1 [Compound 1, (R)-4-(2-amino-2-(5-(2-methoxyquinolin-3-yl)-1H-imidazol-2-yl)ethoxy)-1-(oxazol-2-yl)butan-1-one] yielded an IC50 [1] of 288 nM, an IC50 [2] of 1000 nM and an IC50 [3] of 185 nM.

N[C@@H](COCCCC(=O)c1ccon1)c1ncc(-c2ccccc2F)[nH]1 [Compound 2, (R)-4-(2-amino-2-(5-(2-fluorophenyl)-1H-imidazol-2-yl)ethoxy)-1-(isoxazol-3-yl)butan-1-one] was tested, and the IC50 [1] was 602 nM, the IC50 [2] was ≥ 900 nM and the IC50 [3] was 272 nM.

CCC(=O)CCCOC[C@H](NC(=O)c1cncs1)c1ncc(-c2cc3ccccc3nc2OC)[nH]1 [Compound 5, N-{(1R)-1-[5-(2-methoxyquinolin-3-yl)-1H-imidazol-2-yl]-2-[(4-oxohexyl)oxy]ethyl}-1,3-thiazole-5-carboxamide] was tested, and the IC50 [2] was 1160 nM.

With CCC(=O)CCCOC[C@H](NC(=O)C12CCN(CC1)CC2)c1ncc(-c2cc3ccccc3nc2OC)[nH]1 [Compound 6, N-{(1R)-1-[5-(2-methoxyquinolin-3-yl)-1H-imidazol-2-yl]-2-[(4-oxohexyl)oxy]ethyl}-1-azabicyclo[2.2.2]octane-4-carboxamide] the IC50 [2] was 925 nM and the IC50 [3] was 87.3 nM.

CNC(=O)C(=O)CCCOC[C@H](NC(=O)c1cncs1)c1ncc(-c2cc3ccccc3nc2OC)[nH]1 [Compound 8, N-[(1R)-1-[5-(2-methoxyquinolin-3-yl)-1H-imidazol-2-yl]-2-{[5-(methylamino)-4,5-dioxopentyl]oxy}ethyl]-1,3-thiazole-5-carboxamide] was tested, and the IC50 [1] was 1.5 nM, the IC50 [2] was 2.5 nM and the IC50 [3] was 1.5 nM.

CNC(=O)C(=O)CCCOC[C@H](NC(=O)C12CCN(CC1)CC2)c1ncc(-c2cc3ccccc3nc2OC)[nH]1 [Compound 9, N-[(1R)-1-[5-(2-methoxyquinolin-3-yl)-1H-imidazol-2-yl]-2-{[5-(methylamino)-4,5-dioxopentyl]oxy}ethyl]-1-azabicyclo[2.2.2]octane-4-carboxamide] was tested, and the IC50 [1] was 1.5 nM, the IC50 [2] was 1.5 nM and the IC50 [3] was 1.5 nM.

For COc1nc2ccccc2cc1-c1cnc([C@H](COCCCC(=O)c2ncco2)NC(=O)c2cncs2)[nH]1 [Compound 10, N-{(1R)-1-[5-(2-methoxyquinolin-3-yl)-1H-imidazol-2-yl]-2-[4-(1,3-oxazol-2-yl)-4-oxobutoxy]ethyl}-1,3-thiazole-5-carboxamide], the IC50 [1] was 6.6 nM, the IC50 [2] was 25.9 nM and the IC50 [3] was 3.6 nM.

COc1nc2ccccc2cc1-c1cnc([C@H](COCCCC(=O)c2ncco2)NC(=O)[C@H]2CC23CCN(C)CC3)[nH]1 [Compound 11, (1S)-N-{(1R)-1-[5-(2-methoxyquinolin-3-yl)-1H-imidazol-2-yl]-2-[4-(1,3-oxazol-2-yl)-4-oxobutoxy]ethyl}-6-methyl-6-azaspiro[2.5]octane-1-carboxamide] gave an IC50 [1] of 2.1 nM, an IC50 [2] of 9.7 nM and an IC50 [3] of 5 nM.

For COc1nc2ccccc2cc1-c1cnc([C@H](COCCCC(=O)c2ncco2)NC(=O)C23CCN(CC2)CC3)[nH]1 [Compound 12, N-{(1R)-1-[5-(2-methoxyquinolin-3-yl)-1H-imidazol-2-yl]-2-[4-(1,3-oxazol-2-yl)-4-oxobutoxy]ethyl}-1-azabicyclo[2.2.2]octane-4-carboxamide], the IC50 [1] was 4.7 nM, the IC50 [2] was 29.7 nM and the IC50 [3] was 7.7 nM.

In the case of COc1nc2ccccc2cc1-c1cnc([C@H](COCCCC(=O)c2ncco2)NC(=O)CN(C)C)[nH]1 [Compound 13, N-{(1R)-1-[5-(2-methoxyquinolin-3-yl)-1H-imidazol-2-yl]-2-[4-(1,3-oxazol-2-yl)-4-oxobutoxy]ethyl}-N~2~,N~2~- dimethylglycinamide], the IC50 [1] is reported as 2.7 nM, the IC50 [2] is reported as 14.4 nM and the IC50 [3] is reported as 3.8 nM.

For COc1nc2ccccc2cc1-c1cnc([C@H](COCCCC(=O)c2ccon2)NC(=O)CN(C)C)[nH]1 [Compound 14, N-{(1R)-2-(4-isoxazol-3-yl-4-oxobutoxy)-1-[5-(2-methoxyquinolin-3-yl)-1H-imidazol-2-yl]ethyl}-N~2~,N~2~- dimethylglycinamide], the IC50 [1] was 1.5 nM, the IC50 [2] was 3.2 nM and the IC50 [3] was 2.2 nM.

With CN1CC(C(=O)N[C@@H](COCCCC(=O)c2ccon2)c2ncc(-c3ccccc3F)[nH]2)C1 [Compound 15, N-[(1R)-1-[5-(2-fluorophenyl)-1H-imidazol-2-yl]-2-(4-isoxazol-3-yl-4-oxobutoxy)ethyl]-1-methylazetidine-3-carboxamide] the IC50 [1] was 4 nM, the IC50 [2] was 31.3 nM and the IC50 [3] was 1.6 nM.

Compound CN1CC(C(=O)N[C@@H](COCCCC(=O)c2ccon2)c2[nH]c(-c3ccc(F)cc3)nc2Cl)C1 [Compound 16, N-[(1R)-1-[4-chloro-2-(4-fluorophenyl)-1H-imidazol-5-yl]-2-(4-isoxazol-3-yl-4-oxobutoxy)ethyl]-1-methylazetidine-3-carboxamide] has an IC50 [1] of 11.8 nM, an IC50 [2] of 56.7 nM and an IC50 [3] of 9.2 nM.

Work on CN(C)CC(=O)N[C@@H](COCCCC(=O)c1ccon1)c1[nH]c(-c2ccc(F)cc2)nc1Cl [Compound 17, N-[(1R)-1-[4-chloro-2-(4-fluorophenyl)-1H-imidazol-5-yl]-2-(4-isoxazol-3-yl-4-oxobutoxy)ethyl]-N~2~,N~2~- dimethylglycinamide] yielded an IC50 [1] of 18.6 nM, an IC50 [2] of 106 nM and an IC50 [3] of 17 nM.

CN1CCC2(CC1)C[C@@H]2C(=O)N[C@@H](COCCCC(=O)c1ccon1)c1[nH]c(-c2ccc(F)cc2)nc1Cl [Compound 18, (1S)-N-[(1R)-1-[4-chloro-2-(4-fluorophenyl)-1H-imidazol-5-yl]-2-(4-isoxazol-3-yl-4-oxobutoxy)ethyl]-6-methyl-6-azaspiro[2.5]octane-1-carboxamide] was tested, and the IC50 [1] was 1.4 nM, the IC50 [2] was 8.1 nM and the IC50 [3] was 1.3 nM.

Compound COc1cc2nc(C)ccc2cc1-c1cnc([C@H](COCCCC(=O)c2cc(C)on2)NC(=O)C2CN(C)C2)[nH]1 [Compound 19, N-{(1R)-1-[5-(7-methoxy-2-methylquinolin-6-yl)-1H-imidazol-2-yl]-2-[4-(5-methylisoxazol-3-yl)-4-oxobutoxy]ethyl}-1-methylazetidine-3-carboxamide] has an IC50 [1] of 6.9 nM, an IC50 [2] of 8 nM and an IC50 [3] of 1.3 nM.

COc1cc2nc(C)ccc2cc1-c1cnc([C@H](COCCCC(=O)c2cc(C)on2)NC(=O)[C@H]2CC23CCN(C)CC3)[nH]1 [Compound 20, (1S)-N-{(1R)-1-[5-(7-methoxy-2-methylquinolin-6-yl)-1H-imidazol-2-yl]-2-[4-(5-methylisoxazol-3-yl)-4-oxobutoxy]ethyl}-6-methyl-6-azaspiro[2.5]octane-1-carboxamide] showed an IC50 [1] of 3.7 nM, an IC50 [2] of 3.8 nM and an IC50 [3] of 0.8 nM.
